Series [1] in a line: Uptake of [125I]iodothyronine derivatives by Xenopus laevis oocytes injected with Ntcp cRNA. The note with it: for uptake ratio at 1 h: oatp1, choline. The protocol:
(§1) For capping, the m7G[5']ppp[5']G cap analog was used (Epicentre Technologies). cRNA was stored in water at -80 C at a concentration of 0.1 mg/ml.
(§2) Oocytes were prepared as described previously (9). After isolation, the oocytes were sorted on morphological criteria and defolliculated manually. […] The next day, oocytes were injected with 23 nl water containing 23 ng mRNA, 2.3 ng Ntcp cRNA or 2.3 ng oatp1 cRNA using the Nanoject system (Drummond Scientific, Broomall, PA). Injected and uninjected oocytes were maintained for 2-3 days at 18 C in modified Barth's solution.
(§3) Uptake assays were performed as described previously (9). […] After 1 h, incubation buffer was removed and the oocytes were washed four times with 2.5 ml ice-cold Na^+-containing incubation buffer supplemented with 0.1% BSA. Oocytes were transferred to new tubes and counted individually.

For series [2], the system named is Na^+-independent organic anion transporting polypeptide (oatp1). Put plainly: Uptake of [125I]iodothyronine derivatives by Xenopus laevis oocytes injected with oatp1 cRNA. The note with it: oatp1 cRNA-injected oocytes; 1-2 nM ligand; Na^+ medium. As to the method:
as §1, §2, §3

Counter-ions that a name gives are not always drawn.

The results in this text go back to patent EP0982399B1, “Thyroid hormone transporters, agonists and antagonists thereof” (Stichting tot bevordering van de wetenschap der …, priority 1998, dated 2000).

On to `N[C@@H](Cc1ccc(Oc2ccc(O)c(I)c2)c(I)c1)C(=O)O` [3,3'-T2, 3,3'-diiodothyronine], for which the uptake ratio at 1 h, 100 µM in series [1] stood at 1.3; in series [1] (xenopus oocytes, oatp1 crna) it was 1.4. Moreover, the uptake ratio at 1 h in series [1] (xenopus oocytes) was 1.8.
Take `NC(Cc1cc(I)c(Oc2ccc(OS(=O)(=O)O)c(I)c2)c(I)c1)C(=O)O` (stereo not shown) [T3S, T3 sulfate]: the “uptake higher than that of the other sulfates” value in series [2] is approximately 50%.
With `N[C@@H](Cc1cc(I)c(Oc2cc(I)c(O)c(I)c2)c(I)c1)C(=O)O` [T4, 3,3',5,5'-tetraiodothyronine], the uptake ratio at 1 h, 100 µM turned out to be 1.9 in series [1] (xenopus oocytes, ntcp crna) and 2.8 in series [1] (xenopus oocytes, oatp1 crna). Also, the uptake ratio at 1 h in series [1] (xenopus oocytes) came to 3.8.
Consider `N[C@@H](Cc1ccc(Oc2cc(I)c(O)c(I)c2)c(I)c1)C(=O)O` [rT3, 3,3',5'-triiodothyronine], for which the uptake ratio at 1 h, 100 µM is 1.8 in series [1] and 6 in series [1] (xenopus oocytes, oatp1 crna). In addition, in series [1] (xenopus oocytes), the uptake ratio at 1 h was found to be 8.5.
